Source: the NIST ThermoML archive (doi:10.1021/acs.jced.5b00288)
“And” between values parts separate entries of the source, which are not always exact repeats. Equal values may be shown once. Numbers after ± are expanded uncertainties.

Assay: excess molar enthalpy (molar enthalpy of mixing); xn = mol fraction of the nth substance listed
Conditions: 1060 K, 101 kPa, Liquid, Calvet calorimetry

[I][La]([I])[I] [lanthanum triiodide] + [I-].[K+]
Conditions | excess molar enthalpy
x1 = 0.048 | -1.94 ± 0.31 kJ/mol
x1 = 0.1 | -4.07 ± 0.65 kJ/mol
x1 = 0.152 | -6.4 ± 1 kJ/mol
x1 = 0.199 | -6.86 kJ/mol and -8.07 kJ/mol
x1 = 0.246 | -8.92 ± 1.4 kJ/mol
x1 = 0.25 | -7.36 ± 1.2 kJ/mol
x1 = 0.304 | -7.48 ± 1.2 kJ/mol
x1 = 0.348 | -7.92 ± 1.3 kJ/mol
x1 = 0.354 | -9.62 ± 1.5 kJ/mol
x1 = 0.398 | -8.06 ± 1.3 kJ/mol

[I][La]([I])[I] [lanthanum triiodide] + [I-].[Na+]
Conditions | excess molar enthalpy [kJ/mol]
x1 = 0.0482 | -0.792 ± 0.13
x1 = 0.0991 | -1.74 ± 0.28
x1 = 0.1503 | -1.93 ± 0.31
x1 = 0.2 | -2.84 ± 0.45
x1 = 0.2477 | -2.3 ± 0.37
x1 = 0.296 | -3.44 ± 0.55
x1 = 0.3412 | -2.74 ± 0.44
x1 = 0.3968 | -2.89 ± 0.46
x1 = 0.3984 | -3.19 ± 0.51
x1 = 0.4454 | -2.86 ± 0.46
x1 = 0.4931 | -2.08 ± 0.33
x1 = 0.4966 | -2.41 ± 0.39
x1 = 0.5392 | -2.53 ± 0.41
